In test [1] the target is T1, Dihydropteroate synthase (Bacillus anthracis) (UniProt Q81VW8).
T1 sequence (whole entry): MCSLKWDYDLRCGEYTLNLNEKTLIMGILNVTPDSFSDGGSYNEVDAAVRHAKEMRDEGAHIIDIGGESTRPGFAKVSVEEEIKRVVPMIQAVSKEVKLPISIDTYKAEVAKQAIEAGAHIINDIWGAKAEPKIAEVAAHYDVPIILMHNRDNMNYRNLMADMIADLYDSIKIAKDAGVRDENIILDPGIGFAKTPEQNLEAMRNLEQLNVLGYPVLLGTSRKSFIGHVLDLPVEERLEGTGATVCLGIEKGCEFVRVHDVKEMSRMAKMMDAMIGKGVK
Briefly: Inhibition of Bacillus anthracis DHPS at 200 uM after 10 mins.

Test [2] has as its target T1, Dihydropteroate synthase (Bacillus anthracis). Nature of the test: Inhibition of Bacillus anthracis DHPS at 200 uM.

As to `Nc1nc2c(c(=O)[nH]1)C[C@@H](N(CCCP(=O)(O)O)Cc1ccc(C(=O)O)cc1)CN2`, the figures for the inhibition in test [1] and in test [2] were 6.3% and 3.9%, respectively.

`Nc1nc2ncc(N(CCCP(=O)(O)O)Cc3ccc(C(=O)O)cc3)cc2c(=O)[nH]1`: the inhibition was 44.3% in test [1] and 32.9% in test [2].

Take `Nc1nc2c(c(=O)[nH]1)CC(N(CCP(=O)(O)O)Cc1ccc(C(=O)O)cc1)CN2` (stereo not drawn): the inhibition worked out at 5.7% in test [1] and 3.6% in test [2].

On to `Nc1nc2ncc(N(CCP(=O)(O)O)Cc3ccc(C(=O)O)cc3)cc2c(=O)[nH]1`, for which the figures for the inhibition in test [1] and in test [2] were 30.5% and 16.3%, respectively.

The values above are taken from ChEMBL document CHEMBL1667794, “Synthesis of bi-substrate state mimics of dihydropteroate synthase as potential inhibitors and molecular probes” (Bioorg Med Chem, 2011).
